Laboratory results from patent US9051311B2, “Sulfamide sodium channel inhibitors” (AMGEN INC., priority 2012, dated 2015).
Structures can show the parent of a compound that is named as a salt.

What was measured:
Nav 1.7 [1] = molecular target: T1, Nav 1.7 (Homo sapiens (Human), UniProt Q15858); assay: Nav 1.7 IonWorks Quattro (IWQ) in vitro assay, population patch-clamp; type: cell-based; conditions: 293 cells stably transfected with Nav 1.7; block at 26th pulse to −20 mV;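 further: cells held at −110 mV for 3 s, then 26 pulses of 150 ms at 5 Hz, leak-corrected peak current, percent block measured before and after compound, 3–8 min exposure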
T1 sequence (Q15858 whole entry): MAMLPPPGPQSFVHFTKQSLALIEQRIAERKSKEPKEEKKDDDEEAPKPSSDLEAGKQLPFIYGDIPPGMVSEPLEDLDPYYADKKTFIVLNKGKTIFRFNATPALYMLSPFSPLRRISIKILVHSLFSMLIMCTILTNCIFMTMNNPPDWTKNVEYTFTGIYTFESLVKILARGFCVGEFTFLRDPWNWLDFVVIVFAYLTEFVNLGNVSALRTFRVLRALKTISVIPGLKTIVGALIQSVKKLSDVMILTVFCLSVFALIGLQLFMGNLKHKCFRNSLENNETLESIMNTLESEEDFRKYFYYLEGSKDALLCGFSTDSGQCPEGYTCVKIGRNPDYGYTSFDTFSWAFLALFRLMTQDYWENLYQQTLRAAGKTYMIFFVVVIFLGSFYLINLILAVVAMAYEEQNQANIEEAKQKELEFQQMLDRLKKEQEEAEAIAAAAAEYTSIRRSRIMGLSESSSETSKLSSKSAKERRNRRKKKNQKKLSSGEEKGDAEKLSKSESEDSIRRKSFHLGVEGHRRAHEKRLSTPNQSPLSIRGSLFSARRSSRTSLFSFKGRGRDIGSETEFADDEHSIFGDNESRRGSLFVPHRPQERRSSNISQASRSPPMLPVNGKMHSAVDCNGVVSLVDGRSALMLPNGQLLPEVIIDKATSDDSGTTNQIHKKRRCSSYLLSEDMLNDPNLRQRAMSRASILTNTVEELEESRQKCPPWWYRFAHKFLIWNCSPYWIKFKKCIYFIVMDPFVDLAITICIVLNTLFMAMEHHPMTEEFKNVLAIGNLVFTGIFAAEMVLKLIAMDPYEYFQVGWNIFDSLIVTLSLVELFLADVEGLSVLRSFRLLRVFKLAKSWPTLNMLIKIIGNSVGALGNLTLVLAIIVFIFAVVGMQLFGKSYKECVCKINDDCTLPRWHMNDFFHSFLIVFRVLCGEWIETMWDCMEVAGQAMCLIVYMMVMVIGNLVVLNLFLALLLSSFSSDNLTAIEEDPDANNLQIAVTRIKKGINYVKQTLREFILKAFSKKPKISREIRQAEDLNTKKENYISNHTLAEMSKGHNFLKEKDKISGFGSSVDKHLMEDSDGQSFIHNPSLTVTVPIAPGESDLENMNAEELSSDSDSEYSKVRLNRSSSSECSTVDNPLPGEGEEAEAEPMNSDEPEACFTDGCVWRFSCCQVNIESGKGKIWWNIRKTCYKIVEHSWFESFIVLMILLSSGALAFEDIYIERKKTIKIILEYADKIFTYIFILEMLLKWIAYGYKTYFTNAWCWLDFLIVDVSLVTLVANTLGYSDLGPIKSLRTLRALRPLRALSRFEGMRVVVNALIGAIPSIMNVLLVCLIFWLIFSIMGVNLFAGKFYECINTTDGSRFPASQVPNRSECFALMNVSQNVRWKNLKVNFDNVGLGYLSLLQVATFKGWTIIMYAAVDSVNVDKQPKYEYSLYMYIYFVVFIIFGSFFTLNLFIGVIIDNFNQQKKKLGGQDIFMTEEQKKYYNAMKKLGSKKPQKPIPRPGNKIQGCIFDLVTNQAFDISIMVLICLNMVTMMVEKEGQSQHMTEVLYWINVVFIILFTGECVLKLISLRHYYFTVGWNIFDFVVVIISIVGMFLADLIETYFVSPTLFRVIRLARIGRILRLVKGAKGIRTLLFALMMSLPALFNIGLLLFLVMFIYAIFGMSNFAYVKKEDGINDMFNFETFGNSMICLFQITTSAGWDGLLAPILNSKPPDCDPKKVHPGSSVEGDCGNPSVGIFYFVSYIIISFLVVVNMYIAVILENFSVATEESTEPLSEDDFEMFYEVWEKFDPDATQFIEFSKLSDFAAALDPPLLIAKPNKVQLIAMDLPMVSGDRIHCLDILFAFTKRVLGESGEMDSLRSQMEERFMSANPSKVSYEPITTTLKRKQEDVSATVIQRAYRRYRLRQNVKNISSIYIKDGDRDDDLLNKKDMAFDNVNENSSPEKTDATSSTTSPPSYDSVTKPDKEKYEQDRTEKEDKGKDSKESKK
Procedure: (§1) Nav 1.7 and Nav 1.5 Ion Works Quattro (IWQ) In Vitro Assays
(§2) 293 cells stably transfected with either Nav 1.7 or with Nav 1.5 were recorded in population patch-clamp mode with the IonWorks® Quattro automated electrophysiology system in accordance with the manufacturer's specifications (Molecular Devices, LLC, Sunnyvale, Calif.). Sodium channel currents were measured in response to a train of depolarizations that induced successively greater inactivation.
(§3) Cells were held at −110 mV for three seconds (Nav 1.7) or half a second (Nav 1.5) from a holding voltage of −15 mV, then put through a series of 26 pulses of 150 msec duration to −20 mV at a frequency of 5 Hz. Cells were then left unclamped for a period of 3 to 8 minutes while a single concentration of test compound was added. Cells were then reclamped and put through the same voltage protocol. Current at the end of the 26th pulse to −20 mV was subtracted from the peak current evoked by the 26th pulse to −20 mV to correct for leak current. Percent block was calculated for each concentration in duplicate, and IC50 curves were fitted to percent block as a function of concentration.

Nav 1.7 [2] = molecular target: T1, Nav 1.7; assay: Nav 1.7 in vitro PatchExpress (PX) assay, whole cell voltage clamp; type: cell-based; conditions: 293 cells stably transfected with human Nav1.7; partially inactivated state (20 to 50% inactivation)
Procedure: Nav 1.7 In Vitro PatchExpress (PX) Assay
293 cells stably transfected with human Nav1.7 were recorded in whole cell voltage clamp mode with the PatchXpress automated electrophysiology system (Molecular Devices, LLC, Sunnyvale, Calif.). Compound effects were measured on a partially inactivated state of the sodium channel. Cells were clamped to a holding potential yielding 20 to 50% inactivation. To elicit sodium current, channels were activated by pulsing to −10 mV for 20 msec. This voltage protocol was repeated at a rate of 0.1 Hz throughout the experiment. A single concentration of test compound was applied to cells for a duration of 3 minutes. Peak sodium current was measured at the end of the compound addition period to determine percent inhibition.

Nav 1.5 = Nav 1.5 (Homo sapiens (Human), UniProt Q14524); assay: cell-based;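 further: HEK293 cells stably expressing Nav1.5, sodium current at the 26th of 26 pulses to −20 mV (150 ms, 5 Hz) after compound versus before, leak-corrected, 3–8 min exposure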
Sequence of Nav 1.5 (Q14524 whole entry): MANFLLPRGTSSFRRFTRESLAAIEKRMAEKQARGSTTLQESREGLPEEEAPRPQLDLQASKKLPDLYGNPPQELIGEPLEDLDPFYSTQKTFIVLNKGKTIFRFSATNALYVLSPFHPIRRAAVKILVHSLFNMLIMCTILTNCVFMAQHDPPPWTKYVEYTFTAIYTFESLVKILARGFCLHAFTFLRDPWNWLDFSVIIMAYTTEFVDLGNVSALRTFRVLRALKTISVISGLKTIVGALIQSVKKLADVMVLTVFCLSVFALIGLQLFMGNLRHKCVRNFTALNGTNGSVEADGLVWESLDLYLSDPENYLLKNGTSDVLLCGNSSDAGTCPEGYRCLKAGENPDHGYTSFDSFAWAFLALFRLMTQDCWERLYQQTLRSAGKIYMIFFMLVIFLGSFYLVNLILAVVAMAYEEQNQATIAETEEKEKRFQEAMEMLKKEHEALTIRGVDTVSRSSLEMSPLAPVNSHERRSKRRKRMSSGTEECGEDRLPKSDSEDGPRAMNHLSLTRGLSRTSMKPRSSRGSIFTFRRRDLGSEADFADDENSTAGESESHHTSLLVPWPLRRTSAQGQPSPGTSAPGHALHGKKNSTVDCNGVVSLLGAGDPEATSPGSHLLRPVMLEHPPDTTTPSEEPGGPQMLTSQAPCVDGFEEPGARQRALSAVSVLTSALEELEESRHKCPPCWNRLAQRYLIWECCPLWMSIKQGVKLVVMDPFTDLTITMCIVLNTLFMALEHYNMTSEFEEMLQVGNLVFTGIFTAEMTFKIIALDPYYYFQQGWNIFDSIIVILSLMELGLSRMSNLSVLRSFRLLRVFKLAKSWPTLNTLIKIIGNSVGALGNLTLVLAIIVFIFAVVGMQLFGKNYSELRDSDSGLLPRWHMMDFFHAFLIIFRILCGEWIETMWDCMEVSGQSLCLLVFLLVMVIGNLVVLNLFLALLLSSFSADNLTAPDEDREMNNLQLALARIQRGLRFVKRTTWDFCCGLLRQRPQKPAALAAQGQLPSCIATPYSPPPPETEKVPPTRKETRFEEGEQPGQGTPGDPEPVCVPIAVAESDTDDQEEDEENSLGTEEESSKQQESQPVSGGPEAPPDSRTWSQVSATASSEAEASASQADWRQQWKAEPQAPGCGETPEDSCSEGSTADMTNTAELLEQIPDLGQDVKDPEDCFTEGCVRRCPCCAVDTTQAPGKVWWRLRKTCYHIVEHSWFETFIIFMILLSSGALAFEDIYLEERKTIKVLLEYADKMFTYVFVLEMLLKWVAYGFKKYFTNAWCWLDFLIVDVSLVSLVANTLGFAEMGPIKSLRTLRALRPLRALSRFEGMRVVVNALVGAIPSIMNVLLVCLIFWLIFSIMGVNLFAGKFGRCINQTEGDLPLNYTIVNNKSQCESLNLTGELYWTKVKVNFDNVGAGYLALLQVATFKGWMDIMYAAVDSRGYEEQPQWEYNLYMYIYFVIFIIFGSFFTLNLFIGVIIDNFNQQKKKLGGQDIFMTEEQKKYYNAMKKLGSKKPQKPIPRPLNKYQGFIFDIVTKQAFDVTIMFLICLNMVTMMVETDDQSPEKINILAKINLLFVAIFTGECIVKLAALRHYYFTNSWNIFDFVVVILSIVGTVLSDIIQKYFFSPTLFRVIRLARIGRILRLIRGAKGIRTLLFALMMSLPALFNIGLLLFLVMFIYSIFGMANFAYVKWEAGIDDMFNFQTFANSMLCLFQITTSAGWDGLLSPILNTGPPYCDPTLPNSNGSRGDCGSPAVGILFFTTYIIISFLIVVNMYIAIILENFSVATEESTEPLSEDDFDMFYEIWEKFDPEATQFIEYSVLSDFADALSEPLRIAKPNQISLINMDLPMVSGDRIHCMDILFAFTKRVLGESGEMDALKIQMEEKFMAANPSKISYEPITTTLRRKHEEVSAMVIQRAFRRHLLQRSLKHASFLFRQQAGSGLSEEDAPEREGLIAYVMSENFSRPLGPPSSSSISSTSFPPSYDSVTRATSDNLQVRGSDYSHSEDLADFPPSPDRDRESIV
Procedure: as §1, §2, §3

SMILES | IC50 (Nav 1.7 [1]) | IC50 (Nav 1.7 [2]) | IC50 (Nav 1.5)
O=S(=O)(Nc1ncns1)N1CCc2c(cccc2-c2ccc(C(F)(F)F)cc2C2=CCOCC2)C1 [Example 19, 5-(2-(3,6-Dihydro-2H-pyran-4-yl)-4-(trifluoromethyl)phenyl)-N-(1,2,4-thiadiazol-5-yl)-3,4-dihydroisoquinoline-2(1H)-sulfonamide] | 378 nM | 1710 nM | > 10000 nM
O=S(=O)(Nc1ncns1)N1CCc2c(cccc2-c2ccc(C(F)(F)F)cc2-c2cccnc2)C1 [Example 22, 5-(2-(Pyridin-3-yl)-4-(trifluoromethyl)phenyl)-N-(1,2,4-thiadiazol-5-yl)-3,4-dihydroisoquinoline-2(1H)-sulfonamide] | 80.5 nM | 470 nM | > 10000 nM
O=S(=O)(Nc1ncns1)N1CCc2c(cccc2-c2ccc(C(F)(F)F)cc2-c2cncnc2)C1 [Example 23, 5-(2-(Pyrimidin-5-yl)-4-(trifluoromethyl)phenyl)-N-(1,2,4-thiadiazol-5-yl)-3,4-dihydroisoquinoline-2(1H)-sulfonamide] | 186 nM | 800 nM | > 10000 nM
O=S(=O)(Nc1ncns1)N1CCc2c(cccc2-c2cccc3ccccc23)C1 [Example 24, 5-(Naphthalen-1-yl)-N-(1,2,4-thiadiazol-5-yl)-3,4-dihydroisoquinoline-2(1H)-sulfonamide] | 2680 nM | 4910 nM | > 10000 nM
COc1ccc(-c2cccc3c2CCN(S(=O)(=O)Nc2ncns2)C3)c(OC)c1 [Example 26, 5-(2,4-Dimethoxyphenyl)-N-(1,2,4-thiadiazol-5-yl)-3,4-dihydroisoquinoline-2(1H)-sulfonamide] | 1510 nM | 2200 nM | > 10000 nM
COc1ccc(OC)c(-c2cccc3c2CCN(S(=O)(=O)Nc2ncns2)C3)c1 [Example 27, 5-(2,5-Dimethoxyphenyl)-N-(1,2,4-thiadiazol-5-yl)-3,4-dihydroisoquinoline-2(1H)-sulfonamide] | 125 nM | 670 nM | > 10000 nM
COc1cccc(OC)c1-c1cccc2c1CCN(S(=O)(=O)Nc1ncns1)C2 [Example 28, 5-(2,6-Dimethoxyphenyl)-N-(1,2,4-thiadiazol-5-yl)-3,4-dihydroisoquinoline-2(1H)-sulfonamide] | 4670 nM | > 30000 nM | > 10000 nM
COc1ccc(F)cc1-c1cccc2c1CCN(S(=O)(=O)Nc1ncns1)C2 [Example 29, 5-(5-Fluoro-2-methoxyphenyl)-N-(1,2,4-thiadiazol-5-yl)-3,4-dihydroisoquinoline-2(1H)-sulfonamide] | 62.8 nM | 370 nM | > 10000 nM
COc1cc(F)ccc1-c1cccc2c1CCN(S(=O)(=O)Nc1ncns1)C2 [Example 30, 5-(4-Fluoro-2-methoxyphenyl)-N-(1,2,4-thiadiazol-5-yl)-3,4-dihydroisoquinoline-2(1H)-sulfonamide] | 137 nM | 560 nM | > 10000 nM
O=S(=O)(Nc1ncns1)N1CCc2c(cccc2-c2ccc(C(F)(F)F)cc2N2CCOCC2)C1 [Example 31, 5-(2-Morpholino-4-(trifluoromethyl)phenyl)-N-(1,2,4-thiadiazol-5-yl)-3,4-dihydroisoquinoline-2(1H)-sulfonamide] | 758 nM | 1740 nM | > 10000 nM
O=S(=O)(Nc1ncns1)N1CCc2c(cccc2-c2ccc(C(F)(F)F)cc2-n2ccnc2)C1 [Example 32, 5-(2-(1H-Imidazol-1-yl)-4-(trifluoromethyl)phenyl)-N-(1,2,4-thiadiazol-5-yl)-3,4-dihydroisoquinoline-2(1H)-sulfonamide] | 25.8 nM | 220 nM | 6680 nM
O=S(=O)(Nc1ncc(F)s1)N1CCc2c(cccc2-c2ccc(C(F)(F)F)cc2C2=CCNCC2)C1 [Example 33, N-(5-Fluorothiazol-2-yl)-5-(2-(1,2,3,6-tetrahydropyridin-4-yl)-4-(trifluoromethyl)phenyl)-3,4-dihydroisoquinoline-2(1H)-sulfonamide hydrochloride] | 351 nM | 190 nM | > 10000 nM
O=S(=O)(Nc1ncns1)N1CCc2c(cccc2-c2ccc(C(F)(F)F)cc2C2=CCNC2)C1 [Example 34, 5-(2-(2,5-Dihydro-1H-pyrrol-3-yl)-4-(trifluoromethyl)phenyl)-N-(1,2,4-thiadiazol-5-yl)-3,4-dihydroisoquinoline-2(1H)-sulfonamide hydrochloride] | 64.5 nM | 50 nM | > 10000 nM
O=S(=O)(Nc1ncc(F)s1)N1CCc2c(cccc2-c2ccc(C(F)(F)F)cc2C2CCNCC2)C1 [Example 35, N-(5-Fluorothiazol-2-yl)-5-(2-(piperidin-4-yl)-4-(trifluoromethyl)phenyl)-3,4-dihydroisoquinoline-2(1H)-sulfonamide hydrochloride] | 315 nM | 170 nM | > 10000 nM
O=S(=O)(Nc1nccs1)N1CCc2c(cccc2-c2ccc(C(F)(F)F)cc2C2=CCNCC2)C1 [Example 36, 5-(2-(1,2,3,6-Tetrahydropyridin-4-yl)-4-(trifluoromethyl)phenyl)-N-(thiazol-2-yl)-3,4-dihydroisoquinoline-2(1H)-sulfonamide hydrochloride] | 1890 nM | 4680 nM | > 10000 nM
O=S(=O)(Nc1ccncn1)N1CCc2c(cccc2-c2ccc(C(F)(F)F)cc2C2=CCNCC2)C1 [Example 37, N-(Pyrimidin-4-yl)-5-(2-(1,2,3,6-tetrahydropyridin-4-yl)-4-(trifluoromethyl)phenyl)-3,4-dihydroisoquino line-2(1H)-sulfonamide] | 3940 nM | 19000 nM | > 10000 nM
O=S(=O)(Nc1ncc(F)s1)N1CCc2c(cccc2-c2ccc(C(F)(F)F)cc2-n2ccnc2)C1 [Example 38, 5-(2-(1H-Imidazol-1-yl)-4-(trifluoromethyl)phenyl)-N-(5-fluorothiazol-2-yl)-3,4-dihydroisoquinoline-2(1H)-sulfonamide] | 91.7 nM | 690 nM | > 10000 nM
CN1CC=C(c2cc(C(F)(F)F)ccc2-c2cccc3c2CCN(S(=O)(=O)Nc2ncc(F)s2)C3)CC1 [Example 39, N-(5-Fluorothiazol-2-yl)-5-(2-(1-methyl-1,2,3,6-tetrahydropyridin-4-yl)-4-(trifluoromethyl)phenyl)-3,4-dihydroisoquinoline-2(1H)-sulfonamide] | 240 nM | 1170 nM | > 10000 nM
CN1CC=C(c2ccc(C(F)(F)F)cc2-c2cccc3c2CCN(S(=O)(=O)Nc2ncc(F)s2)C3)CC1 [Example 40, N-(5-Fluorothiazol-2-yl)-5-(2-(1-methyl-1,2,3,6-tetrahydropyridin-4-yl)-5-(trifluoromethyl)phenyl)-3,4-dihydroisoquinoline-2(1H)-sulfonamide] | 2810 nM | 12100 nM | > 10000 nM
CN1CCN(c2cc(C(F)(F)F)ccc2-c2cccc3c2CCN(S(=O)(=O)Nc2ncc(F)s2)C3)CC1 [Example 41, N-(5-Fluorothiazol-2-yl)-5-(2-(4-methylpiperazin-1-yl)-4-(trifluoromethyl)phenyl)-3,4-dihydroisoquinoline-2(1H)-sulfonamide] | 395 nM | 7340 nM | > 10000 nM
Cc1cn(-c2cc(C(F)(F)F)ccc2-c2cccc3c2CCN(S(=O)(=O)Nc2ncc(F)s2)C3)cn1 [Example 42, N-(5-fluorothiazol-2-yl)-5-(2-(4-methyl-1H-imidazol-1-yl)-4-(trifluoromethyl)phenyl)-3,4-dihydroisoquinoline-2(1H)-sulfonamide] | 228 nM | 1340 nM | > 10000 nM
Cc1cncn1-c1cc(C(F)(F)F)ccc1-c1cccc2c1CCN(S(=O)(=O)Nc1ncc(F)s1)C2 [Example 43, N-(5-Fluorothiazol-2-yl)-5-(2-(5-methyl-1H-imidazol-1-yl)-4-(trifluoromethyl)phenyl)-3,4-dihydroisoquinoline-2(1H)-sulfonamide] | 171 nM | 1920 nM | > 10000 nM
COc1cc(C(F)(F)F)ccc1-c1cccc2c1CCN(S(=O)(=O)Nc1ncns1)C2 [Example 44, 5-(2-Methoxy-4-(trifluoromethyl)phenyl)-N-(1,2,4-thiadiazol-5-yl)-3,4-dihydroisoquinoline-2(1H)-sulfonamide] | 135 nM | 260 nM | > 10000 nM
COc1cc(C2CC2)ccc1-c1cccc2c1CCN(S(=O)(=O)Nc1ncns1)C2 [Example 45, 5-(4-Cyclopropyl-2-methoxyphenyl)-N-(1,2,4-thiadiazol-5-yl)-3,4-dihydroisoquinoline-2(1H)-sulfonamide] | 67.5 nM | 870 nM | > 10000 nM
COc1cc(C(F)(F)F)ccc1-c1nccc2c1CCN(S(=O)(=O)Nc1ncns1)C2 [Example 46, 5-(2-Methoxy-4-(trifluoromethyl)phenyl)-N-(1,2,4-thiadiazol-5-yl)-3,4-dihydro-2,6-naphthyridine-2(1H)-sulfonamide] | 19 nM | 940 nM | > 10000 nM
COc1cc(C2CC2)ccc1-c1nccc2c1CCN(S(=O)(=O)Nc1ncns1)C2 [Example 47, 5-(4-Cyclopropyl-2-methoxyphenyl)-N-(1,2,4-thiadiazol-5-yl)-3,4-dihydro-2,6-naphthyridine-2(1H)-sulfonamide] | 59 nM | 560 nM | > 10000 nM
